In patent US9676774B2, “Compounds and compositions for treatment of cancer” (Sunesis Pharmaceuticals, Inc., priority 2006, dated 2017):

Columns and labels:
[1] = tested on: HCT-116 cells; test: MTT cell viability (cytotoxicity) assay in HCT-116 cells; type: cell-based; details: Homo sapiens, 72 hours incubation, highest concentration 5 μM, read-out: IC50 (reduced cell viability)
Description: MTT Dye Solution: 5 mg/mL MTT dye (Sigma #M2128) in sterile PBS, filter sterilized, stored at 4° C. in a dark bottle no longer than 1 month.
Lysis Buffer: 50% N,N-dimethyl formamide (Aldich #31,993-7) in dH20, 20% w/v lauryl sulfate (added with stirring at 37° C.) (Sigma #L4509), adjusted pH to 4.7 with 2.5% of 80% acetic acid (Fisher #A490-212) and 2.5% 1 N HCl (Spectrum #HY105).
Supplemented RPMI media: 500 mL RPMI (Cellgro #10-040-CV), 10% FBS (Cellgro #35-011CV) and 1% Sodium Bicarbonate solution (Cellgro @35-035-CI), 1% Antibotic Solution (100× stock; Cellgro #30-004CI).
HCT-116 cells were purchased from ATTC (#CCL-247).
Background: No cells, Totals: Cells treated with DMSO only
96-well tissue culture-treated flat bottom plates (Costar #3595) were plated with 4000 trypsinized cells in 100 μL/well and incubated overnight. 100× stock concentrations of compounds were prepared in DMSO and serially diluted two-fold in DMSO in a 96-well polypropylene v-bottom plate (Costar #3363). 5 μL of DMSO dilutions were then added to 45 μL supplemented RPMI, and 10 μL/well of this mixture were added to plates containing HCT-116 cells. The highest concentration of compounds was 5 μM. Plates were incubated for 72 hours at 37° C. in an incubator (5% CO2).
After incubation, 20 μL of MTT solution were added to each well and incubated at 37° C. for 1.5 hour. 100 μL lysis buffer was then added and plates were incubated for 48 hours at 37° C. Cell viability was then recorded by absorbance at 595 nm using a Biorad Benchmark Microplate Reader. The fraction of dead cells was determined by Fraction of Dead cells=Absorbance of sample well−Avg(no cell control)/Avg(Absorbance of DMSO only Control)−Avg(no cell control).

[2] = In vitro reaction of SNS-595 with pooled human liver microsomes (product identification); type: in vitro ADME; details: for product formed from SNS-595 in liver microsomes: human liver microsomes 1 mg/mL, 10 or 100 μM SNS-595, 60 min, 37° C., NADPH
Description: The in vitro production of N-Desmethyl SNS-595 from SNS-595 was monitored as described herein. The pooled Human Liver Microsomes were obtained from BD Gentest and NADPH was obtained from Sigma.
The in vitro reactions were performed (a) in the presence of NADPH as a cofactor and (b) in the absence of NADPH to identify any SNS-595 derivatives generated by cofactor independent mechanisms.
The reaction mixture constituted 100 mM Sodium Phosphate buffer, pH 7.4, containing 3.3 mM MgCl2, 1 mg/mL liver microsomal protein, 10 or 100 μM SNS-595, and 1 mM NADPH for reaction with NADPH. In both the NADPH plus and minus reactions, SNS-595 was added to the reaction mixture and allowed to equilibrate to 37° C. for 10 minutes before starting the reaction by adding NADPH or an equivalent volume of buffer. Reactions were performed in a volume of 1 mL in 2 mL 96-well polypropylene assay blocks. The reaction was stopped by adding an equal volume of acetonitrile at both 0 and 60 minutes after initiating the reaction. Samples were placed on ice until centrifugation at 4100 g for 10 minutes to remove proteins for subsequent analysis.
SNS-595 and the reaction products were identified on an API 4000 mass spectrometer coupled to a turbo electro spray ionization source. Prior to MS analysis chromatography was performed to achieve separation of the reaction precuts (N-desmethyl-SNS-595 had the […] SNS-595). The HPLC system consisted of an Agilent 1100 binary pump and single wavelength UV/Vis as a detector, and a Phenomenex Synergi Hydro-RP column (150×2 mm, 4 micron, 80 Å particle size). Following column separation, UV spectra were collected at 350 nm before mass spectral analysis. Mass spectral identification of the reaction products was done using a series of three experiments; MS full scan, product ion scans on all reaction products identified in the MS full scan analysis as well as multiple reaction monitoring (MRM) or product ion scans on theoretically possible reaction products. […]

Row | product formed from SNS-595 in liver microsomes [2] | product detectable after incubation of SNS-595 in liver microsomes ([2]; human liver microsomes, 10 μM incubation concentration of SNS-595) | Structure (SMILES) | IC50 [1] [nM]
1 | – | – | CN[C@H]1CN(c2ccc3c(=O)c(C(=O)O)cn(-c4nccs4)c3n2)C[C@@H]1OC [SNS-595, (+)-1,4-dihydro-7-[(3S,4S)-3-methoxy-4-(methylamino)-1-pyrrolidinyl]-4-oxo-1-(2-thiazolyl)-1,8-naphthyridine-3-carboxylic acid] | 425
2 | predominant product formed | only product detectable | CO[C@H]1CN(c2ccc3c(=O)c(C(=O)O)cn(-c4nccs4)c3n2)C[C@@H]1N [N-desmethyl-SNS-595, (+)-1,4-dihydro-7-[(3S,4S)-3-methoxy-4-amino-1-pyrrolidinyl]-4-oxo-1-(2-thiazolyl)-1,8-naphthyridine-3-carboxylic acid] | 507
3 | second product formed | – | CN[C@H]1CN(c2ccc3c(=O)c(C(=O)O)cn(-c4nccs4)c3n2)C[C@@H]1O [O-desmethyl-SNS-595, (+)-1,4-dihydro-7-[(3S,4S)-3-hydroxy-4-methylamino-1-pyrrolidinyl]-4-oxo-1-(2-thiazolyl)-1,8-naphthyridine-3-carboxylic acid] | > 5000
